{
  "source": "patent US20070093673A1",
  "about": "“Boron-containing compounds, uses and preparation thereof” (priority 2005, published 2007)",
  "key": {"[1]": {"test_system": "Pain and/or Inflammation", "experiment": "Tests on various subjects: cream applied to the inflamed skin area for pain and/or inflammation", "type": "in vivo, human", "set-up": "key to Pain Condition After Last Application: CD: complete disappearance of pain; RP: residual pain (i.e.: equivalent to mild pain intensity); key to Pain Intensity After Application: No pain: 0; Mild pain: +; Moderate pain: ++; Severe pain: +++ (i.e.: interference with sleep and/or day's activities)", "description": "Compound 1, and more particularly Composition 1, was tested on several subjects so as to verify its activity as anti-inflammatory agent and/or analgesic. As it can be seen from Table 1, test subjects having various inflammations or pain have been treated with Composition 1. In each case, a small amount of Composition 1, in the form of a cream, was applied to inflammated skin area by means of a short gentle rub.\nAll data were provided under testimony of all volunteers.\nM: male • a) Pain intensity rating: • No pain: 0 • Mild pain: + • Moderate pain: ++ • Severe pain: +++ (i.e.: interference with sleep and/or day's activities). • b) Pain condition after the last application of Compound 1. • CD: complete disappearance of pain. • RP: residual pain (i.e.: equivalent to mild pain intensity)."}, "[2]": {"experiment": "solubility in water of Compound 1", "type": "physicochemical", "from_the_text": "The mass spectroscopy analysis (electrospray/scanning) using a Micromass quattra ll triple quadrupole mass spectrometer with a GC and HPLC interface, confirmed the previously illustrated formula for Compound 1. Analysis of Compound 1 was done by mass spectroscopy, positive mode, preparation of samples in 2% acetonitrile-98% methanol. […] The product observed was the following: B3C3H11O9 (223.5 g per mole). […] The purity of the obtained product was>98 % (confirmed by 500 MHz ^1H NMR analysis) and the solubility in water was at maximum 7% w/w, yielding a clear colorless solution.\nAn analysis of Compound 1, prepared by using metaboric acid and glycerol, was conducted under the same condition as for Compound 1 with boric acid and glycerol. […] The product observed was the following: B3C3H11O9 (223.5 g per mole). […] When compared to Compound 1 prepared from boric acid and glycerol, the purity and solubility of the obtained product were similar i.e. a purity of ≈98% with solubility in water at maximum of 7% w/w, yielding a colorless solution."}, "[3]": {"conditions": "all four subjects with chronic diseases, after application"}},
  "data": [
    {"smiles": "CC(=O)Oc1ccccc1C(=O)O", "note": "[Aspirin®, acetylsalicylic acid, reference compound]", "values": [
      {"measurement": "gastric adverse effect that prompted discontinuation", "setting": "[1]; medications taken in the past by the volunteers, testimony", "result": "severe gastric burning sensation"}
    ]},
    {"smiles": "OB(O)OCC(COB(O)O)OB(O)O", "note": "[Compound 1]", "values": [
      {"measurement": "solubility in water", "setting": "[2]; Compound 1 prepared from boric acid and glycerol, clear colorless solution", "result": "≤ 7", "unit": "% w/w"},
      {"measurement": "solubility in water", "setting": "[2]; Compound 1 prepared from metaboric acid and glycerol, colorless solution", "result": "≤ 7", "unit": "% w/w"},
      {"measurement": "subjects with total disappearance of pain", "setting": "[1]; 30 minutes after application of the cream containing Compound 1", "result": "Four subjects out of six"},
      {"measurement": "complete loss of stiffness", "setting": "[1]; [3]", "result": "within four four hours"},
      {"measurement": "reduced sensation of stiffness", "setting": "[1]; [3]", "result": "within two hours"},
      {"measurement": "time to complete relief of the pain after the application", "setting": "[1]; four subjects with chronic lower back pain, fibromyalgia or arthritis", "result": "approximately 30 minutes"},
      {"measurement": "pain after last application, all subjects", "setting": "[1]; including three out of six who required a maximum of three applications", "result": "complete disappearance of pain for all subjects"},
      {"measurement": "time to relapse of pain", "setting": "[1]; one out of four subjects with chronic disease, who required three applications", "result": "approximately 12 hours"},
      {"measurement": "pain intensity, all volunteers", "setting": "[1]; six volunteers, topical cream", "result": "reduced pain intensity for all volunteers"},
      {"measurement": "loss of swelling at joints and of tenderness sensation", "setting": "[1]; subjects with fibromyalgia and arthritis", "result": "approximately the same time-frames as reported earlier for stiffness"},
      {"measurement": "time to complete disappearance of pain", "setting": "[1]; two subjects with an injury to a leg", "result": "within three days"},
      {"measurement": "effect compared with medications taken in the past for the same chronic afflictions", "setting": "[1]; versus acetaminophen/Tylenol, acetaminophen-codeine/Empracet or acetylsalicylic acid/Aspirin, testimony of volunteers", "result": "higher than medications taken in the past"},
      {"measurement": "Pain Condition After Last Application", "setting": "[1]; volunteer D-123-S, injury, leg, 3 applications", "result": "CD"},
      {"measurement": "Pain Intensity After Application", "setting": "[1]; volunteer D-123-S, injury, leg, before application ++, 3 applications, topical cream", "result": "+"},
      {"measurement": "Time to Pain Relief", "setting": "[1]; volunteer D-123-S, injury, leg, before application ++, topical cream", "result": 0.5, "unit": "h"},
      {"measurement": "Pain Condition After Last Application", "setting": "[1]; volunteer D-321-J, fibromyalgia, hands, 1 application", "result": "CD*"},
      {"measurement": "Pain Intensity After Application", "setting": "[1]; volunteer D-321-J, fibromyalgia, hands, before application +++, 1 application, topical cream", "result": 0},
      {"measurement": "Time to Pain Relief", "setting": "[1]; volunteer D-321-J, fibromyalgia, hands, before application +++, topical cream", "result": 0.5, "unit": "h"},
      {"measurement": "Pain Condition After Last Application", "setting": "[1]; volunteer D-457-D, fibromyalgia, hands & feet, 1 application", "result": "CD*"},
      {"measurement": "Pain Intensity After Application", "setting": "[1]; volunteer D-457-D, fibromyalgia, hands & feet, before application ++, 1 application, topical cream", "result": 0},
      {"measurement": "Time to Pain Relief", "setting": "[1]; volunteer D-457-D, fibromyalgia, hands & feet, before application ++, topical cream", "result": 0.5, "unit": "h"},
      {"measurement": "Pain Condition After Last Application", "setting": "[1]; volunteer D-633-J, lower back pain, musculoskeletal, 1 application", "result": "CD*"},
      {"measurement": "Time to Pain Relief", "setting": "[1]; volunteer D-633-J, lower back pain, musculoskeletal, before application ++, topical cream", "result": 0.5, "unit": "h"},
      {"measurement": "Pain Intensity After Application", "setting": "[1]; volunteer D-633-J, lower back pain, musculoskeletal, lower back, central, before application ++, 1 application, topical cream", "result": 0},
      {"measurement": "Pain Condition After Last Application", "setting": "[1]; volunteer D-701, arthritis, wrists, 3 applications", "result": "CD"},
      {"measurement": "Time to Pain Relief", "setting": "[1]; volunteer D-701, arthritis, wrists, before application ++, topical cream", "result": 0.5, "unit": "h"},
      {"measurement": "Pain Intensity After Application", "setting": "[1]; volunteer D-942-L, injury, leg, before application +++, 3 applications, topical cream", "result": "++"},
      {"measurement": "Pain Condition After Last Application", "setting": "[1]; volunteer D-942-L, injury, leg, 3 applications", "result": "CD"},
      {"measurement": "Time to Pain Relief", "setting": "[1]; volunteer D-942-L, injury, leg, before application +++, topical cream", "result": 8.0, "unit": "h"}
    ]}
  ]
}
